Laboratory results from US12649723B2, “Carbonohydrazonoyl dicyanide compounds comprising 2 or more aryl or heteroaryl connected via linker and use thereof” (KOREA INSTITUTE OF SCIENCE AND TECHNOLOGY, priority 2020, dated 2026).

Columns and labels:
[1] = target: T1, tau protein (Homo sapiens, UniProt P10636); experiment: Tau-BiFC cell model: inhibition of tau protein aggregation; format: cell-based; details: for remaining activity at 10 µM: 48 h, compound 10 μM, BiFC fluorescence, Forskolin-only group = 100% tau protein-aggregated state, read-out: Response (% @10 μM); for IC50: Tau BiFC in cells, with Forskolin 30 μM, 48 hours
T1 construct: fused on or other part: Split fluorescent-protein halves for BiFC are fused to tau; In the published tau-BiFC line these are Venus VN173 and VC155
T1 sequence (P10636 2-441 isoform P10636-8 limits assumed): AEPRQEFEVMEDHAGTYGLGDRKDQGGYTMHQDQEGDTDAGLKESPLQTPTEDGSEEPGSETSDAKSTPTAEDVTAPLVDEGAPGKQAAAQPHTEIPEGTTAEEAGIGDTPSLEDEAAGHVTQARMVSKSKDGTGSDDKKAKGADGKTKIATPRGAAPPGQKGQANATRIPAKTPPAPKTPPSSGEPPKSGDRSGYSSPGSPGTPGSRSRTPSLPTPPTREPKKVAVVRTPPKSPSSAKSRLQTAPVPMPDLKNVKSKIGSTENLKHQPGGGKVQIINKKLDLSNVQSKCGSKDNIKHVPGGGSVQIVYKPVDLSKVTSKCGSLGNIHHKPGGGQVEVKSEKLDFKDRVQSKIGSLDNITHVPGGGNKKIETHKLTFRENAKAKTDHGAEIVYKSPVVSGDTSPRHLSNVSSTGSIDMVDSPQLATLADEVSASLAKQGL
Protocol: (§1) In order to select novel tau protein aggregation-inhibiting substances, tau-BiFC cell model, in which formation of tau oligomers in living cells is easily observed, was used. Tau-BiFC cells were aliquoted into a 384-well plate. On the next day, the cells were treated with each of the compounds prepared according to Examples 1 to 175 at concentrations of 1 μM, 3 μM, and 10 μM, together with Forskolin (at a treatment concentration of 30 μM), which is a compound inducing tau protein aggregation by activating tau […] PKA. After 48 hours, nuclei in the cells were stained using Hoechst (at a treatment concentration of 2 μg/mL), and BiFC fluorescence intensity was automatically measured using Operetta (PerkinElmer) to count stained nuclei in each well out of the entire well plate. The group treated only with Forskolin, which induces tau protein aggregation, was set to a reference point of a 100% tau protein-aggregated state, and the effects of the compounds were confirmed using the equation “BiFC fluorescence intensity due to compound synthesized according to embodiment of present invention/(fluorescence intensity of control group treated only with Forskolin inducing tau protein aggregation−fluorescence intensity of untreated control group)×100”. Furthermore, the degree of cytotoxicity induced by the newly synthesized compound was also measured based on the 100% cell viability of the group treated only with Forskolin as a reference, and the cytotoxicity value of each compound was calculated using the equation “(number of stained nuclei in group treated with compound/number of stained nuclei in group treated with Forskolin)×100”. Based on the treatment results, substances inhibiting intracellular tau protein aggregation were selected from a series of candidate groups showing a tau protein aggregation inhibition rate of 70% or more and cell viability of 100% at a compound treatment concentration of 10 μM or more.
(§2) In order to evaluate dose-dependent tau protein aggregation inhibition effects of the compounds selected according to Experimental Example 1 on tau protein aggregation, tau-BiFC cells were treated with the selected compounds at concentrations of 0.03 μM, […], 0.3 μM, 1 μM, 3 μM, 10 μM, and 30 μM, respectively, together with Forskolin (at a treatment concentration of 30 μM), which is a tau protein aggregation inducing substance. After 48 hours, tau protein aggregation reaction and degrees of cytotoxicity were analyzed by observing images of the cells. IC50 and toxicity of the compounds were analyzed by way of nonlinear regression analysis of prism software (Graph Pad).

[2] = system: Tau-BiFC cells; experiment: Cell viability (cytotoxicity) in tau-BiFC cells, count of stained nuclei; format: cell-based; details: compound 10 μM; Forskolin-only group = 100% cell viability
Protocol: as §1, §2

Row | SMILES | remaining activity at 10 µM [1] [%] | IC50 [1] [µM] | Cell viability (% @10 μM) [2] [%]
1 | Cc1cnc(C(=O)Nc2ccc(NN=C(C#N)C#N)cc2)cn1 [Compound 2, (4-(5-methylpyrazine-2-carboxamido)phenyl)carbonohydrazonoyl dicyanide] | 0 | 1.4 | 71.5
2 | Cc1cnc(C(=O)Nc2ccc(NN=C(C#N)C#N)c(Cl)c2)cn1 [Compound 5, (2-chloro-4-(5-methylpyrazine-2-carboxamido)phenyl)carbonohydrazonoyl dicyanide] | 14.5 | – | 61.2
3 | Cc1cnc(C(=O)Nc2ccc(NN=C(C#N)C#N)cc2F)cn1 [Compound 7, (3-fluoro-4-(5-methylpyrazine-2-carboxamido)phenyl)carbonohydrazonoyl dicyanide] | 0 | – | 30.6
4 | Cc1cnc(C(=O)Nc2ccc(NN=C(C#N)C#N)cc2C)cn1 [Compound 8, (3-methyl-4-(5-methylpyrazine-2-carboxamido)phenyl)carbonohydrazonoyl dicyanide] | 0 | 0.04 | 88
5 | COc1cc(NN=C(C#N)C#N)ccc1NC(=O)c1cnc(C)cn1 [Compound 10, (3-methoxy-4-(5-methylpyrazine-2-carboxamido)phenyl)carbonohydrazonoyl dicyanide] | 0 | – | 21.7
6 | Cc1cnc(C(=O)Nc2ccc(NN=C(C#N)C#N)cc2Cl)cn1 [Compound 11, (3-chloro-4-(5-methylpyrazine-2-carboxamido)phenyl)carbonohydrazonoyl dicyanide] | 0 | 0.11 | 82.5
7 | Cc1cnc(C(=O)Nc2ncc(NN=C(C#N)C#N)cc2C)cn1 [Compound 12, (5-methyl-6-(5-methylpyrazine-2-carboxamido)pyridin-3-yl)carbonohydrazonoyl dicyanide] | 17.9 | 0.64 | 122.1
8 | Cc1cnc(C(=O)Nc2cc(C)c(NN=C(C#N)C#N)cn2)cn1 [Compound 13, (4-methyl-6-(5-methylpyrazine-2-carboxamido)pyridin-3-yl)carbonohydrazonoyl dicyanide] | 30 | 0.55 | 110
9 | Cc1cnc(C(=O)Nc2ccc(NN=C(C#N)C#N)nc2)cn1 [Compound 14, (5-(5-methylpyrazine-2-carboxamido)pyridin-2-yl)carbonohydrazonoyl dicyanide] | 147 | – | 102
10 | N#CC(C#N)=NNc1ccc(NC(=O)c2ccccc2)nc1 [Compound 15, (6-benzamidopyridin-3-yl)carbonohydrazonoyl dicyanide] | 0 | 0.09 | 79.9
11 | N#CC(C#N)=NNc1ccc(NC(=O)c2ccccc2F)nc1 [Compound 17, (6-(2-fluorobenzamido)pyridin-3-yl)carbonohydrazonoyl dicyanide] | 0 | 0.31 | 102.7
12 | N#CC(C#N)=NNc1ccc(NC(=O)c2cccc(F)c2)nc1 [Compound 18, (6-(3-fluorobenzamido)pyridin-3-yl)carbonohydrazonoyl dicyanide] | 0 | 0.66 | 113
13 | Cc1cc(C(=O)Nc2ccc(NN=C(C#N)C#N)cn2)ccc1F [Compound 21, (6-(4-fluoro-3-methylbenzamido)pyridin-3-yl)carbonohydrazonoyl dicyanide] | 0 | 0.75 | 104.3
14 | Cc1ccc(C(=O)Nc2ccc(NN=C(C#N)C#N)cn2)cc1F [Compound 22, (6-(3-fluoro-4-methylbenzamido)pyridin-3-yl)carbonohydrazonoyl dicyanide] | 0 | 0.32 | 105.8
